Legend:
[1] = biological target: T1, Bromodomain BRD-2 (1-473) (Homo sapiens, UniProt P25440); assay: Fluorescence Anisotropy Binding Assay, BRD-2; details: displacement of fluorescent ligand (Reference compound K) 5 nM, BRD-2 75 nM; read-out: pIC50 in the BRD-2 assay (converted)
T1 construct: Recombinant Human Bromodomains (BRD-2 (1-473), BRD-3 (1-435) and BRD-4 (1-477)); six-His tag (N); made in house; host or cells: E. coli (pET15b vector)
Description: (§1) Fluorescence Anisotropy Binding Assay
(§2) All data was normalized to the mean of 16 high and 16 low control wells on each plate. A four parameter curve fit of the following form was then applied: y=a+((b−a)/(1+(10^x/10^c)^d)
(§3) Where ‘a’ is the minimum, ‘b’ is the Hill slope, ‘c’ is the pIC50 and ‘d’ is the maximum.
(§4) The His-tagged Bromodomain was extracted from E. coli cells using 0.1 mg/ml lysozyme and sonication. […] Further purification was completed by Superdex 200 prep grade size exclusion column. Purified protein was stored at −80 C in 20 mM HEPES pH 7.5 and 100 mM NaCl.
(§5) 10 μl of this reaction mixture was added using a micro multidrop to wells containing 100 nl of various concentrations of test compound or DMSO vehicle (1% final) in Greiner 384 well Black low volume microtitre plate and equilibrated in dark 60 mins at room temperature.

[2] = biological target: T2, Bromodomain BRD-3 (1-435) (Homo sapiens, UniProt Q15059); assay: Fluorescence Anisotropy Binding Assay, BRD-3; details: displacement of fluorescent ligand (Reference compound K) 5 nM, BRD-3 75 nM; read-out: pIC50 in the BRD-3 assay (converted)
T2 construct: Recombinant Human Bromodomains (BRD-2 (1-473), BRD-3 (1-435) and BRD-4 (1-477)); six-His tag (N); made in house; host or cells: E. coli (pET15b vector)
Description: as §1, §2, §3, §4, §5

[3] = biological target: Bromodomain BRD-4 (1-477) (Homo sapiens, UniProt O60885); assay: biochemical; details: pIC50 in the BRD-4 assay, displacement of fluorescent ligand (Reference compound K) 5 nM, BRD-4 75 nM
Description: as §1, §2, §3, §4, §5

T1 sequence (P25440 1-473): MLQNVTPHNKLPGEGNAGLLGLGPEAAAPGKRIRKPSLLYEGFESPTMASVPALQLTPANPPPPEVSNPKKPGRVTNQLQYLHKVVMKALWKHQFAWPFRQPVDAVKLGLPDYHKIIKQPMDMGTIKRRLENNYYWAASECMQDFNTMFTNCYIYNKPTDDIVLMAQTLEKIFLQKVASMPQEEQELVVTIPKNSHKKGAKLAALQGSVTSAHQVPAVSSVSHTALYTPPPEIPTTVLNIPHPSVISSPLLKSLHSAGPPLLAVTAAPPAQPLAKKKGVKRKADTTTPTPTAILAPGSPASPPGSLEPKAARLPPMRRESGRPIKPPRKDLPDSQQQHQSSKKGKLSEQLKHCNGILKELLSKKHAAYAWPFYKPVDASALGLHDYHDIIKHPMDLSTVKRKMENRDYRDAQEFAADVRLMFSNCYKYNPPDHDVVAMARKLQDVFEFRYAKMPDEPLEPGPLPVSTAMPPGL
T2 sequence (Q15059 1-435): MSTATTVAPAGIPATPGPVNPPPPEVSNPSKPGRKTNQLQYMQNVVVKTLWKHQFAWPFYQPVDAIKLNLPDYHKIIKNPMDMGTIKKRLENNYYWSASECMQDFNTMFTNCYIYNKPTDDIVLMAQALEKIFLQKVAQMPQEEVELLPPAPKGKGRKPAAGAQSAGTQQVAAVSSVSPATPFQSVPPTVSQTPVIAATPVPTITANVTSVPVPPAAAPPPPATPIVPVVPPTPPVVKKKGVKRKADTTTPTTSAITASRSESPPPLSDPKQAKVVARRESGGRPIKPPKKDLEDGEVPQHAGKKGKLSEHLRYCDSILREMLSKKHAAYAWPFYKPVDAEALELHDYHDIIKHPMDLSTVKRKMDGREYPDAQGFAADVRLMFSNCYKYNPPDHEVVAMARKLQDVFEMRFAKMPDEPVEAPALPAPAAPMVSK

Row | IC50 [1] | IC50 [2] | IC50 [3] | Compound
1 | ≤ 1 µM | ≤ 1 µM | ≤ 1 µM | CNCc1ccc(-c2ccc3c(c2)[C@H](NC(=O)OC(C)C)C[C@H](C)N3C(C)=O)cc1 [Compound (IV), 1-methylethyl ((2S,4R)-1-acetyl-2-methyl-6-{4-[(methylamino)methyl]pheny}-1,2,3,4-tetrahydro-4-quinolinyl)carbamate]
2 | ≤ 0.316 µM | ≤ 0.316 µM | – | CC(=O)N1c2ccc(-c3ccc(C(=O)O)cc3)cc2[C@H](Nc2ccc(Cl)cc2)C[C@@H]1C [Compound (II), 4-{(2S,4R)-1-acetyl-4-[(4-chlorophenyl)amino]-2-methyl-1,2,3,4-tetrahydro-6-quinolinyl}benzoic acid]

From patent publication US9753034B2, “Process for the identification of a compound which inhibits the binding of the first bromodomain of each of human BRD-2, BRD-3, and BRD-4” (GLAXOSMITHKLINE LLC, priority 2009, dated 2017)
